In patent US20090221559A1 (priority 2005, published 2009) one finds IC50 and EC50 data, which are given here for 32 molecules.

Like-named read-outs stand apart in the source and are kept apart here. Bounds are passed on as bounds.

In test [1] the target is T1, HCV NS5B polymerase (His-tagged, C-terminal 21 amino acid deleted NS5B, HC-J4) (Hepatitis C virus genotype 1b, UniProt O92972).
T1 construct: The cDNA encoding NS5B amino acid 1-570 (HC-J4, genotype 1b); His tag (His6, from pET-21b) (C); made in house; host or cells: E. coli BL21 (DE3)
T1 sequence (O92972 2417-3000, looked up, stated change not applied): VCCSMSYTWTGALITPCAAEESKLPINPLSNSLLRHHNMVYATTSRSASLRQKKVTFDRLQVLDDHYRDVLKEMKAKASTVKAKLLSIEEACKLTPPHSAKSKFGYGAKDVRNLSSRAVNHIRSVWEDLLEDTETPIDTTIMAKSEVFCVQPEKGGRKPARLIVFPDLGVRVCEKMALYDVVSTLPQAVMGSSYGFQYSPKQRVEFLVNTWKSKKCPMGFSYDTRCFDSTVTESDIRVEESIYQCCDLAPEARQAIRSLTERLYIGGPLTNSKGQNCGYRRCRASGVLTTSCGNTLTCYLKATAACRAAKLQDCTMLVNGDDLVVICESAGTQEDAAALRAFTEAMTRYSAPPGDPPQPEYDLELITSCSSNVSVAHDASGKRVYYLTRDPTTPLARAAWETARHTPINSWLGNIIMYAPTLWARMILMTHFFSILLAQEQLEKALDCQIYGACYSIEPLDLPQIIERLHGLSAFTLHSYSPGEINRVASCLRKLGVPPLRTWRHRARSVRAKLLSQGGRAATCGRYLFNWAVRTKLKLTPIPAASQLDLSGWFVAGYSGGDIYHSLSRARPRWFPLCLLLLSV
Kind of test: NS5b polymerase assay (biochemical RdRp assay, 3H-GTP incorporation, SPA beads). On the set-up: species or system HCV genotype 1b. Here is the method:
(§1) The compounds of formula (I) were tested for anti-HCV activity in an assay determining their activity against NS5b polymerase and in an HCV replicon assay
The cDNA encoding NS5B amino acid 1-570 (HC-J4, genotype 1b, pCV-J4L6S, genebank accession number AF054247) was subcloned into the Nhe I and Xho I restriction sites of pET-21b. Expression of the subsequent His-tagged C-terminal 21 amino acid deleted NS5B was performed as follows:
Following transformation in BL21 (DE3) competent cells, bacterial cells were grown in 22 liter LB/Amp media until to reach OD600=0.4-0.6. Protein expression was induced by addition of IPTG 0.4 mM, supplemented with 10 μM MgCl2, and incubated for 14-16 hrs at 20° C. Cells were harvested, resuspended in lysis buffer (20 mM Tris-HCl pH=7.5, 0.3 M NaCl, 10% glycerol, 0.1% NP40, 4 mM MgCl2, 14 mM beta-mercaptoethanol, with tablet of EDTA-free protease cocktail inhibitors) and lysed by sonification. The cell lysate was cleared by high-speed centrifugation (20K×g for 30 min), captured on Ni-NTA beads for 70 min at 4° C., and eluted with 25 mM Hepes pH 7.5, 0.5 M NaCl, 10% glycerol, 14 mM BME, 500 mM imidazole. The eluent was dialysed against 25 mM Hepes pH 7.5, 10% glycerol, 50 mM NaCl, 14 mM BME, after which the protein was further purified by heparin chromatography using the same buffer with 1 M NaCl for elution. Fractions containing pure protein were collected, dialyzed against storage buffer 25 mM Hepes pH=7.5, 300 mM NaCl, 10% glycerol, 14 mM BME), and flash-freezed in liquid nitrogen.
Measurement of HCV NS5B polymerization activity was performed by evaluating the amount of radiolabeled GTP incorporated by the enzyme in a newly synthesized RNA using heteropolymeric RNA template/primer. The highthroughput RdRp assay was carried out in 384-well plates using 200 nM enzyme, 0.1 μCi of ^3H GTP, 5 mM MgCl2, 600 nM GTP, 30 nM PolyC, 300 nM 5′-biotinylated oligo(rG13)/poly(rC) in 20 mM Tris pH 7.5, 21 mM KCl, 2.5 mM DTT, 16.7 mM NaCl and 0.17 mM EDTA. Test compounds were dissolved in dimethylsulfoxide. The test compounds were added to the preformed polymerase-template complex, and incubated at room temperature (RT) for 15 min before the addition of NTPs. The 30-μl reaction was terminated after 2 h at 25° C. upon addition of 30-μl PVT-SPA beads (Amersham Biosciences RPNQ0009, 5 mg/ml in 0.5 M EDTA).

Test [2] has as its system HCV replicon RNA replication in Huh-7 luc/neo (Huh-Luc) cells. Kind of test: HCV replicon assay (stable replicon cell reporter assay, luciferase read-out). The class given is cell-based, HCV type 1b. Here is the method: as §1
The compounds of the present invention were examined for activity in the inhibition of HCV RNA replication in a cellular assay. […] The cellular assay was based on a bicistronic expression construct, as described by Lohmann et al. (1999) Science vol. 285 pp. 110-113 with modifications described by Krieger et al. (2001) Journal of Virology 75: 4614-4624, in a multi-target screening strategy. In essence, the method was as follows.
The assay utilized the stably transfected cell line Huh-7 luc/neo (hereafter referred to as Huh-Luc). This cell line harbored an RNA encoding a bicistronic expression construct comprising the wild type NS3-NS5B regions of HCV type 1b translated from an Internal Ribosome Entry Site (IRES) from encephalomyocarditis virus (EMCV), preceded by a reporter portion (FfL-luciferase), and a selectable marker portion (neo^R, neomycine phosphotransferase). The construct was bordered by 5′ and 3′ NTRs (non-translated regions) from HCV type 1b. Continued culture of the replicon cells in the presence of G418 (neo^R) was dependent on the replication of the HCV RNA. The stably transfected replicon cells that expressed HCV RNA, which replicated autonomously and to high levels, encoding inter alia luciferase, were used for screening the antiviral compounds.
The replicon cells were plated in 384 well plates in the presence of the test and control compounds which were added in various concentrations. Following an incubation of three days, HCV replication was measured by assaying luciferase activity (using standard luciferase assay substrates and reagents and a Perkin Elmer ViewLux™ ultraHTS microplate imager). […] The inhibitory activity of the compound on luciferase activity was monitored on the Huh-Luc cells, enabling a dose-response curve for each test compound.
For orientation: A replicon is a self-replicating genome or part of one, used to study replication in cells.

[3] abbreviates: 200 nM enzyme, 3H-GTP incorporation, 2 h at 25° C., read-out: NS5B Polymerase Assay IC50.
The mark [4] stands for this setting: Huh-Luc cells, three days incubation, luciferase activity, read-out: Replicon Assay EC50.
Where [5] appears, read: NS5B Polymerase Assay IC50, 200 nM enzyme, 3H-GTP incorporation, 2 h at 25° C.
Where [6] appears, read: NS5B Polymerase Assay IC50 (μM).

Turning to “3-(2-benzyloxyphenyl)-11-[3-(4-chlorobenzoyloxy)phenyl]-2,3,4,5,10,11-hexahydro-dibenzo[b,e][1,4]diazepin-1-one [compound 513]”, the IC50 (in general, the midpoint of a concentration-inhibition curve) in test [1] (read-out: NS5B Polymerase Assay IC50) is 70.1 µM. In addition, in test [2] (Huh-Luc cells, incubation of three days, luciferase activity, read-out: Replicon Assay EC50), the EC50 (as a rule, the concentration needed to bring the measured effect to its halfway point) was found to be 3.67 µM. For `COc1ccc(C2C3=C(CC(c4cccc([N+](=O)[O-])c4)CC3=O)Nc3ccccc3N2C(C)=O)cc1OC` (mixture of isomers) [compound 180], the IC50 in test [1] (setting [3]) is over 42.7 µM. Moreover, in test [2] (setting [4]), the EC50 turned out to be 11.8 µM. The corresponding values for `CCCCCC(=O)N1c2ccccc2NC2=C(C(=O)CC(c3ccc(OC)c(OC)c3)C2)C1c1cccc([N+](=O)[O-])c1` (mixture of isomers) [compound 181] are over 33.3 µM and 2.41 µM. Regarding `CCCCCC(=O)N1c2ccccc2NC2=C(C(=O)CC(c3ccc(C)cc3)C2)C1c1ccccc1Cl` (mixture of isomers) [compound 182], the IC50 in test [1] (setting [3]) was over 42.7 µM. In test [2] (setting [4]), the EC50 turned out to be 1.82 µM. For the molecule `CCCCCC(=O)N1c2ccccc2NC2=C(C(=O)CC(c3ccc(OC)c(OC)c3)C2)C1c1ccc(Cl)cc1` (mixture of isomers) [compound 185], the IC50 in test [1] (setting [3]) is over 33.3 µM. For the same molecule, the EC50 in test [2] (setting [4]) was 4.79 µM. In the case of `COc1ccc(C2C3=C(CC(c4ccc(C)cc4)CC3=O)Nc3ccccc3N2C(=O)c2ccccc2)cc1` (mixture of isomers) [compound 188], the IC50 in test [1] (setting [3]) was over 33.3 µM. The EC50 in test [2] (setting [4]) was 5.16 µM. The corresponding values for `CCC(=O)N1c2ccccc2NC2=C(C(=O)CC(c3ccc(OC)c(OC)c3)C2)C1c1cccc(Cl)c1` (mixture of isomers) [compound 193] are over 33.3 µM and 5.92 µM. The corresponding values for `COc1ccc(C2C3=C(CC(c4ccc(C)cc4)CC3=O)Nc3ccccc3N2C(=O)C(F)(F)F)cc1` (mixture of isomers) [compound 194] are over 33.3 µM and 5.22 µM.

In the case of `CCC(=O)N1c2ccccc2NC2=C(C(=O)CC(c3ccc(C)cc3)C2)C1c1cccc(Cl)c1` (mixture of isomers) [compound 195], the IC50 in test [1] (setting [3]) was over 33.3 µM. In addition, the EC50 in test [2] (setting [4]) came out at 6.9 µM.

Turning to `COc1ccc(C2CC(=O)C3=C(C2)Nc2ccccc2N(C(=O)C(F)(F)F)C3c2ccc(C)cc2)cc1` (mixture of isomers) [compound 196], in test [1] (setting [3]), the IC50 is over 33.3 µM. The EC50 in test [2] (setting [4]) came to 7.32 µM. Take `COc1ccc(C2C3=C(CC(c4ccc(C)cc4)CC3=O)Nc3ccccc3N2C(=O)c2ccccc2)cc1OC` (mixture of isomers) [compound 197]: the IC50 in test [1] (setting [3]) is over 33.3 µM. The EC50 in test [2] (setting [4]) worked out at 8.97 µM.

On to `COc1ccc(C2CC(=O)C3=C(C2)Nc2ccccc2N(C(C)=O)C3c2cccc(Cl)c2)cc1OC` (mixture of isomers) [compound 198], for which, in test [1] (setting [3]), the IC50 is over 33.3 µM. Moreover, the EC50 in test [2] (setting [4]) is 9.22 µM.

Turning to `CC(=O)N1c2ccccc2NC2=C(C(=O)CC(c3ccccc3)C2)C1c1ccc(C)cc1` (mixture of isomers) [compound 199], the IC50 in test [1] (setting [3]) was over 42.7 µM. For the same molecule, the EC50 in test [2] (setting [4]) amounted to 11.5 µM. For `COc1ccc(C2C3=C(CC(c4ccc(Cl)cc4)CC3=O)Nc3ccccc3N2C(=O)C(F)(F)F)cc1` (mixture of isomers) [compound 200], in that order: over 33.3 µM and 9.57 µM. Consider `CCC(=O)N1c2ccccc2NC2=C(C(=O)CC(c3cccc([N+](=O)[O-])c3)C2)C1c1ccc(Cl)cc1` (mixture of isomers) [compound 211], for which the IC50 in test [1] (setting [3]) is over 42.7 µM. Still for that read-out and setting: as for `O=C1CC(c2cccc([N+](=O)[O-])c2)CC2=C1C(c1ccc(Cl)cc1)N(C(=O)C(F)(F)F)c1ccccc1N2` (mixture of isomers) [compound 214], the figure is over 42.7 µM. Take `CC(=O)N1c2ccccc2NC2=C(C(=O)CC(C)(C)C2)C1c1ccc(OCc2ccccc2)c(Cl)c1` (single isomer, unassigned) [compound 303, 10-acetyl-11-[4-benzyloxy-3-chlorophenyl]-3,3-dimethyl-2,3,4,5,10,11-hexahydro-1H-dibenzo[b,e][1,4]diazepin-1-one]: the midpoint of inhibition in test [1] (setting [5]), the IC50, lay at 31.5 µM. As to `COc1ccc(C2C3=C(CC(C)(C)CC3=O)Nc3ccccc3N2C(=O)c2ccccc2)cc1OCc1ccccc1` (stereo not shown) [compound 51], in test [2] (setting [4]), the half-maximal effective concentration (EC50) was determined as 7.66 µM. `CC1(C)CC(=O)C2=C(C1)Nc1ccccc1N(C(=O)Cc1ccccc1)C2c1ccc(Br)cc1` (stereo not shown) [compound 95] displayed an IC50 in test [1] (setting [5]) of over 33.3 µM. For `CC1(C)CC(=O)C2=C(C1)Nc1ccccc1N(C(=O)NCc1ccoc1)C2c1ccc(Cl)cc1Cl` (stereo not shown) [compound 158], in test [2] (setting [4]), the EC50 came out at 31.1 µM. The same measure, in the same setting: as for `CC1(C)CC(=O)C2=C(C1)Nc1ccccc1N(C(=O)NCc1ccccc1)C2c1ccc(Cl)cc1Cl` (stereo not shown) [compound 159], the figure is 9.59 µM. As for `Cc1ccc(C2C3=C(CC(c4cccc(Cl)c4)CC3=O)Nc3ccccc3N2C(=O)C(F)(F)F)cc1` (stereo not shown) [compound 225], the IC50 in test [1] (setting [3]) was over 42.7 µM. `CC1(C)CC(=O)C2=C(C1)Nc1ccccc1N(C(=O)Cc1ccccc1)C2c1ccc(-c2ccc([N+](=O)[O-])cc2)o1` (stereo not shown) [compound 238] gave an IC50 in test [1] (setting [5]) of over 42.7 µM. Same read-out and setting: as for `CC(C)C(=O)N1c2ccccc2NC2=C(C(=O)CC(C)(C)C2)C1c1ccc([N+](=O)[O-])s1` (stereo not shown) [compound 239], the figure is over 42.7 µM. As for `CC1(C)CC(=O)C2=C(C1)Nc1ccccc1N(C(=O)C(F)(F)F)C2/C(Br)=C/c1ccccc1` (stereo not shown) [compound 256], in test [2] (Hepatitis C virus, Huh-7, 72 h, read-out: Replicon Assay EC50, Huh-Luc cells, three days incubation, luciferase activity), the EC50 worked out at 3.98 µM.

As for `CC1(C)CC(=O)C2=C(C1)Nc1ccccc1N(C(=O)c1ccccc1)C2c1ccc(-c2cccc([N+](=O)[O-])c2)o1` (stereo not shown) [compound 272], the IC50 in test [1] (setting [5]) is over 42.7 µM. In turn, `CCCCCC(=O)N1c2ccccc2NC2=C(C(=O)CC(c3ccco3)C2)C1c1cccc([N+](=O)[O-])c1` (stereo not shown) [compound 290] registered an IC50 in test [1] (setting [5]) of over 42.7 µM. In test [1] (setting [6]), `COc1ccc(C2CC(=O)C3=C(C2)Nc2ccccc2NC3c2ccccc2OC(C)C)cc1` (stereo not shown) [compound 333] showed an IC50 of over 42.7 µM.

`COc1ccc(C2CC(=O)C3=C(C2)Nc2ccccc2NC3c2c(F)cccc2Cl)cc1` (stereo not shown) [compound 334] came in with an IC50 in test [1] (setting [6]) of over 42.7 µM. Same read-out and setting: as for `COc1ccc(OC)c(C2Nc3ccccc3NC3=C2C(=O)CC(c2ccccc2)C3)c1` (stereo not shown) [compound 351], the figure is over 42.7 µM; as for `O=C1C[C@@H](c2ccc(Cl)cc2)CC2=C1[C@H](c1cc3c(cc1[N+](=O)[O-])OCO3)Nc1ccccc1N2` [compound 475], over 42.7 µM.

As for `O=C1C[C@@H](c2ccc(Cl)cc2)CC2=C1[C@H](c1cc3c(cc1Br)OCO3)Nc1ccccc1N2` [compound 479], the IC50 in test [1] (setting [6]) was over 42.7 µM.
